The text below walks through data of patent US20110053873A1, “HSP90 INHIBITORS” (TAKEDA PHARMACEUTICAL COMPANY LIMITED, priority 2008, published 2011).

One experiment has as its system HSP90.
Test: not given
As to conditions: transformed cells vs normal tissues; cited from earlier work.
With `C#CCCCn1c(Cc2cc(OC)c(OC)c(OC)c2Cl)nc2c(N)nc(F)nc21` [PU24FCl], the “higher affinity for HSP90 from transformed cells compared to that from normal tissues” value is 10-50 times.

The target in the next experiment is T1, HSP90α (Homo sapiens, UniProt P07900, I104V).
T1 construct: made in house; host or cells: E. coli (BL21)
Kind of experiment: Enzyme binding (competition fluorescence polarization) assay with TSD-FP probe. As to conditions: method of Example A-1; incubation time not stated; read-out: Binding Affinity IC50. The method, then: The reaction can be followed kinetically using fluorescence (excitation λ=485 nm; emission λ=538 nm). The binding affinity of the test compound to HSP90 is determined by the changes in the polarized fluorescence; the intensity of the polarized fluorescence is proportional to the fraction of bound probe. A novel small molecule fluorescence probe, (S,E)-5-(2-(2-amino-7-(4-fluoro-2-(6-methoxypyridin-2-yl)phenyl)-4-methyl-7,8-dihydroquinazolin-5(6H)-ylideneaminooxy)ethylcarbamoyl)-2-(6-hydroxy-3-oxo-3H-xanthene-9-yl)benzoic acid (TSD-FP probe) was specifically developed for the assay. Inhibition constants (IC50) may be calculated by non-linear curve fitting of the compound concentrations and fluorescence intensities to the standard IC50 equation.
1. Enzyme Binding (Fluorescence Polarization) Assay for HSP90 Inhibitors.
a. Preparation of HSP90c Protein
This example describes cloning, expression and purification of a protein comprising the N-terminal domain of HSP90α. It should be noted that a variety of other expression systems and hosts are also suitable for the expression of such protein, as would be readily appreciated by one of skill in the art.
The sequence of human wild-type HSP90α is well known in the art; see, Chen B. et al. Genomics 2005 86:627-637. The gene encoding HSP90α can be isolated from RNA, cDNA or cDNA libraries. In this case, the gene encoding residues 9-236 of image clone 5270926 of HSP90α (ATCC) was isolated. This portion of the gene encoding a section of human HSP90α that includes the N-terminal nucleotide binding domain of human HSP90 was cloned into pET28a vector (Novagen). The DNA sequence of the vector is shown in SEQ ID NO: 1. Expression from this vector produced a protein consisting of the recombinant N-terminal nucleotide binding domain of HSP90α with a cleavable 6×-histidine tag and a cleavage site at the N-terminus. The amino acid sequence of this recombinant protein is shown in SEQ ID NO: 2.
Recombinant human N-terminal truncated His6-HSP90α was expressed in E. coli (BL21) cells with IPTG induction. Cell paste from 24×60 mL tubes (grown in a multi-tube airlift fermentor) was lysed using an automated sample lyser. Briefly, the pellet in each tube was suspended in 21 mL of lysis buffer consisting of 50 mM Tris pH 7.9, 50 mM NaCl, 1 mM MgCl2, 0.6 g/L Lysozyme (Sigma), 100 μL/L Benzonase (Novagen). […] After incubation, 5 M NaCl was added to bring the final salt concentration to 400 mM. The tubes were sonicated for 50 seconds and then centrifuged at 3400 rpm for 50 min. The supernatants were pooled and 4 ml of ProBond Ni resin (Invitrogen) was added. After at least 30 minutes, the resin was spun down, washed with 25 mM Tris pH 7.6, 400 mM NaCl, 20 mM imidazole, poured into a column and washed with 10 column volumes of the same buffer. The protein was eluted from the column using 3 column volumes of 25 mM Tris pH 7.6, 400 mM NaCl, 400 mM imidazole. The eluate was loaded onto a Supedex 200 column (GE Healthcare) equilibrated with 25 mM Tris pH 7.6, 250 mM NaCl, 0.25 mM TCEP, 1 mM EDTA and peak fractions were pooled and concentrated to ˜6 mg/mL using 10 kDA MWCO centrifugal concentrators (Millipore). Aliquots were flash frozen in liquid nitrogen and stored at −80° C. All purification was done at 4° C.
b. Preparation of the Fluorescence Polarization Probe.
A fluorescein labeled small molecule was designed and synthesized as a probe (TSD-FP probe) for the determination of the binding affinity of the test compound to HSP90 proteins. The synthesis of the small molecule, (S,E)-2-amino-7-(4-fluoro-2-(6-methoxypyridin-2-yl)phenyl)-4-methyl-7,8-dihydroquinazolin-5(6H)-one O-2-aminoethyl oxime (Compound 24) was described in Examples 24 and 25 above. The TSD-FP probe was prepared according to the following procedure:
c. Assaying the In Vitro Enzymatic Activity of HSP90 Inhibitors.
The inhibitory effect of the compounds of the invention against HSP90α was determined by fluorescence polarization assay.
On the technique in general: In fluorescence polarisation assays a small probe gives low polarisation when free and higher when bound to something large.
The IC50 is the concentration that inhibits the measured activity by half. `COc1cccc(-c2cc(F)ccc2[C@H]2Cc3nc(N)nc(C)c3/C(=N/OCC(=O)N(C)CCO)N2)n1` [Compound 99, (R,Z)-2-(2-amino-7-(4-fluoro-2-(6-methoxypyridin-2-yl)phenyl)-4-methyl-7,8-dihydropyrido[4,3-d]pyrimidin-5(6H)-ylideneaminooxy)-N-(2-hydroxyethyl)-N-methylacetamide]: the IC50 was 8 nM.
Take `COc1cccc(-c2cc(F)ccc2[C@H]2Cc3nc(N)nc(C)c3/C(=N/OCCCCO)N2)n1` [Compound 79, (R,Z)-2-amino-7-(4-fluoro-2-(6-methoxypyridin-2-yl)phenyl)-4-methyl-7,8-dihydropyrido[4,3-d]pyrimidin-5(6H)-one O-4-hydroxybutyl oxime]: the IC50 was 6 nM.
Take `COc1cccc(-c2cc(F)ccc2[C@H]2Cc3nc(N)nc(C)c3C(NOCCCO)=N2)n1` [Compound 78, (R,Z)-2-amino-7-(4-fluoro-2-(6-methoxypyridin-2-yl)phenyl)-4-methyl-7,8-dihydropyrido[4,3-d]pyrimidin-5(6H)-one O-3-hydroxypropyl oxime]: the IC50 came out at 4 nM.
The same measure, in the same setting: the same measure for `COc1cccc(-c2cc(F)ccc2[C@H]2Cc3nc(N)nc(C)c3/C(=N/O)N2)n1` [Compound 61, (R,Z)-2-amino-7-(4-fluoro-2-(6-methoxypyridin-2-yl)phenyl)-4-methyl-7,8-dihydropyrido[4,3-d]pyrimidin-5(6H)-one oxime]: 3 nM; for `COc1cccc(-c2cc(F)ccc2[C@H]2Cc3nc(N)nc(C)c3/C(=N/O[C@@H](CCO)C(=O)N(C)C)N2)n1` [Compound 93, (S)-2-((Z)-((R)-2-amino-7-(4-fluoro-2-(6-methoxypyridin-2-yl)phenyl)-4-methyl-7,8-dihydropyrido[4,3-d]pyrimidin-5(6H)-ylidene)aminooxy)-4-hydroxy-N,N-dimethylbutanamide]: 8 nM; for `COc1cccc(-c2cc(F)ccc2[C@H]2Cc3nc(N)nc(C)c3C(NOCC3C[C@@H](O)[C@@H](O)C3)=N2)n1` (stereo partly drawn) [Compound 59, (7R,Z)-2-amino-7-(4-fluoro-2-(6-methoxypyridin-2-yl)phenyl)-4-methyl-7,8-dihydropyrido[4,3-d]pyrimidin-5(6H)-one O-((3R,4S)-3,4-dihydroxycyclopentyl)methyl oxime]: 8 nM.
Take `COc1cccc(-c2cc(F)ccc2[C@H]2Cc3nc(N)nc(C)c3C(NOCC(=O)N(C)C[C@H](O)CO)=N2)n1` [Compound 96, 2-((Z)-((R)-2-amino-7-(4-fluoro-2-(6-methoxypyridin-2-yl)phenyl)-4-methyl-7,8-dihydropyrido[4,3-d]pyrimidin-5(6H)-ylidene)aminooxy)-N—((S)-2,3-dihydroxypropyl)-N-methylacetamide]: the IC50 came to 13 nM.
Consider `COc1cccc(-c2cc(F)ccc2[C@H]2Cc3nc(N)nc(C)c3/C(=N/OC[C@H](O)CO)N2)n1` [Compound 33, (R,Z)-2-Amino-7-(4-fluoro-2-(6-methoxypyridin-2-yl)phenyl)-4-methyl-7,8-dihydropyrido[4,3-d]pyrimidin-5(6H)-one O—(R)-2,3-dihydroxypropyl oxime], for which the IC50 came out at 4 nM.
On the same count and under the same terms, the same measure for `COc1cccc(-c2cc(F)ccc2[C@H]2Cc3nc(N)nc(C)c3C(NOCC3CCC(O)CC3)=N2)n1` (stereo partly drawn) [Compound 65, (R,Z)-2-amino-7-(4-fluoro-2-(6-methoxypyridin-2-yl)phenyl)-4-methyl-7,8-dihydropyrido[4,3-d]pyrimidin-5(6H)-one O-((1s,4S)-4-hydroxycyclohexyl)methyl oxime]: 10 nM; for `COc1cccc(-c2cc(F)ccc2[C@H]2Cc3nc(N)nc(C)c3/C(=N/OCC[C@H](O)CO)N2)n1` [Compound 37, (R,Z)-2-amino-7-(4-fluoro-2-(6-methoxypyridin-2-yl)phenyl)-4-methyl-7,8-dihydropyrido[4,3-d]pyrimidin-5(6H)-one O—(S)-3,4-dihydroxybutyl oxime]: 6 nM.
Turning to `COc1cccc(-c2cc(F)ccc2[C@H]2Cc3nc(N)nc(C)c3/C(=N/OCC(=O)N3CC[C@@H](F)C3)N2)n1` [Compound 85, 2-((Z)-((R)-2-amino-7-(4-fluoro-2-(6-methoxypyridin-2-yl)phenyl)-4-methyl-7,8-dihydropyrido[4,3-d]pyrimidin-5(6H)-ylidene)aminooxy)-1-((R)-3-fluoropyrrolidin-1-yl)ethanone], the IC50 came out at 4 nM.
With `COc1cccc(-c2cc(F)ccc2[C@H]2Cc3nc(N)nc(C)c3C(NOCC(CO)CO)=N2)n1` [Compound 35, (R,Z)-2-Amino-7-(4-fluoro-2-(6-methoxypyridin-2-yl)phenyl)-4-methyl-7,8-dihydropyrido[4,3-d]pyrimidin-5(6H)-one O-3-hydroxy-2-(hydroxymethyl)propyl oxime], the IC50 is 13 nM.
Still for that read-out and setting: the same measure for `COc1cccc(-c2cc(F)ccc2[C@H]2Cc3nc(N)nc(C)c3C(NOCC(=O)N(C)C)=N2)n1` [Compound 83, (R,Z)-2-(2-amino-7-(4-fluoro-2-(6-methoxypyridin-2-yl)phenyl)-4-methyl-7,8-dihydropyrido[4,3-d]pyrimidin-5(6H)-ylideneaminooxy)-N,N-dimethylacetamide]: 8 nM; for `COc1cccc(-c2cc(F)ccc2[C@H]2Cc3nc(N)nc(C)c3C(NOC3C[C@@H](O)[C@@H](O)C3)=N2)n1` (stereo partly drawn) [Compound 58, (7R,Z)-2-amino-7-(4-fluoro-2-(6-methoxypyridin-2-yl)phenyl)-4-methyl-7,8-dihydropyrido[4,3-d]pyrimidin-5(6H)-one O-(3R,4S)-3,4-dihydroxycyclopentyl oxime]: 5 nM.

In a further experiment the test system is cells.
Test: not given
As to conditions: cited from earlier work.
In the case of `C#CCCCn1c(Cc2cc(OC)c(OC)c(OC)c2Cl)nc2c(N)nc(F)nc21` [PU24FCl], the “concentration range of biological effects on cells” value was 2-6 μM.
